From patent publication US20040176357A1, “2 Methyl-thieno-benzodiazepine lyophilized formulation” (priority 2001, published 2004)

Columns and labels:
[1] = solubility in parenteral diluents; conditions: parenteral diluents suitable for injection
[2] = rate of absorption after parenteral versus oral administration; type: in vivo; conditions: such as IM, versus oral administration of the same dose
Description: Intramuscular injection is the preferred mode of delivery to the mammal being treated particularly in emergency situations. […] Preferably the lyophilized pharmaceutical formulation of this invention is diluted with aqueous solvent suitable for injection and a liquid unit dosage form prepared for administration to a mammal.

Row | SMILES | solubility in parenteral diluents [1] | rate of absorption [2]
1 | Cc1cc2c(s1)Nc1ccccc1N=C2N1CCN(C)CC1 [Form II] | does not readily dissolve | –
2 | Cc1cc2c(s1)Nc1ccccc1N=C2N1CCN(C)CC1 [olanzapine, 2-methyl-4-(4-methyl-1-piperazinyl)-10H-thieno[2,3-b][1,5]benzodiazepine] | relatively insoluble | more rapid
